Results as given in the Kinase Knowledgebase extract (Sharma et al. 2016).

How the values were obtained:
PIK3CG (human) = PIK3CG (human) (UniProt P48736); test: Assessment of PIK3CG Kinase Activity
[1] = target: PIK3CA (human), P42336 [E545K]; test: Assessment of PIK3CA(E545K) Kinase Activity
PIK3CB (Human) = PIK3CB (Human) (UniProt P42338); test: Assessment of PIK3CB Kinase Activity
PIK3CA (human) = PIK3CA (human) (UniProt P42336); test: Assessment of PIK3CA Kinase Activity
[2] = target: PIK3CA (human), P42336 [H1047R]; test: Assessment of PIK3CA(H1047R) Kinase Activity
Chain of PIK3CA (human), P42336 [H1047R] (P42336 whole entry H1047R, looked up): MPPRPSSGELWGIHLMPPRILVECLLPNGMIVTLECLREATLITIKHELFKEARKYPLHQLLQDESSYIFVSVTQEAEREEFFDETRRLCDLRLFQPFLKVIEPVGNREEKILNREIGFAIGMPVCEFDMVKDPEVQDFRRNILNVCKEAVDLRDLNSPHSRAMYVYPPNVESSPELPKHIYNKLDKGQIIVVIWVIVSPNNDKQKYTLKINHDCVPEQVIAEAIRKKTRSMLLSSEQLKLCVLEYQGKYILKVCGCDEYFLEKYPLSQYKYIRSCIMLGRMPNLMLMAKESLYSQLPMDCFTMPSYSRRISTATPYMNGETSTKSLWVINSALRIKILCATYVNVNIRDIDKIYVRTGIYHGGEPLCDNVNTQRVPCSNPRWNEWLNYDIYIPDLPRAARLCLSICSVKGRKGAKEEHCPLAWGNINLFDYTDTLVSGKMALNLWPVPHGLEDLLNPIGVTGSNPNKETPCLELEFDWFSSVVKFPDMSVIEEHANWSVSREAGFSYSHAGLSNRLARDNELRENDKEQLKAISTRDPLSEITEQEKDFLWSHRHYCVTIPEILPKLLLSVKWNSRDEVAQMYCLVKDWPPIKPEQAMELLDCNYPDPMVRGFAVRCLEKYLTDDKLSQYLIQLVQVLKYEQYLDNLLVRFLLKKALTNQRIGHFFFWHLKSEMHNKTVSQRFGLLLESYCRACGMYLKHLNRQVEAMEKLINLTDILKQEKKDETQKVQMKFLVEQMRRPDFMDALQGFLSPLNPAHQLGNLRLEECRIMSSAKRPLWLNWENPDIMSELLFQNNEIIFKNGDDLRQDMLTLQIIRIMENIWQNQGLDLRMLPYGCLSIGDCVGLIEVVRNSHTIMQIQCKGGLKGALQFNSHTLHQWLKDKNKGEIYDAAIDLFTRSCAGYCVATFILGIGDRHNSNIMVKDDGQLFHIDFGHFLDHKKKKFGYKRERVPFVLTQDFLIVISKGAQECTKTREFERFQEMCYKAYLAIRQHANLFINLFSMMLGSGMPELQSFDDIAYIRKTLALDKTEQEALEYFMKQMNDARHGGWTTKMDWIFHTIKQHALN

Chain of PIK3CA (human) (P42336 whole entry, looked up): as the sequence (P42336 whole entry H1047R, looked up) above, with R1047H counted along it
Chain of PIK3CG (human) (P48736 whole entry, looked up): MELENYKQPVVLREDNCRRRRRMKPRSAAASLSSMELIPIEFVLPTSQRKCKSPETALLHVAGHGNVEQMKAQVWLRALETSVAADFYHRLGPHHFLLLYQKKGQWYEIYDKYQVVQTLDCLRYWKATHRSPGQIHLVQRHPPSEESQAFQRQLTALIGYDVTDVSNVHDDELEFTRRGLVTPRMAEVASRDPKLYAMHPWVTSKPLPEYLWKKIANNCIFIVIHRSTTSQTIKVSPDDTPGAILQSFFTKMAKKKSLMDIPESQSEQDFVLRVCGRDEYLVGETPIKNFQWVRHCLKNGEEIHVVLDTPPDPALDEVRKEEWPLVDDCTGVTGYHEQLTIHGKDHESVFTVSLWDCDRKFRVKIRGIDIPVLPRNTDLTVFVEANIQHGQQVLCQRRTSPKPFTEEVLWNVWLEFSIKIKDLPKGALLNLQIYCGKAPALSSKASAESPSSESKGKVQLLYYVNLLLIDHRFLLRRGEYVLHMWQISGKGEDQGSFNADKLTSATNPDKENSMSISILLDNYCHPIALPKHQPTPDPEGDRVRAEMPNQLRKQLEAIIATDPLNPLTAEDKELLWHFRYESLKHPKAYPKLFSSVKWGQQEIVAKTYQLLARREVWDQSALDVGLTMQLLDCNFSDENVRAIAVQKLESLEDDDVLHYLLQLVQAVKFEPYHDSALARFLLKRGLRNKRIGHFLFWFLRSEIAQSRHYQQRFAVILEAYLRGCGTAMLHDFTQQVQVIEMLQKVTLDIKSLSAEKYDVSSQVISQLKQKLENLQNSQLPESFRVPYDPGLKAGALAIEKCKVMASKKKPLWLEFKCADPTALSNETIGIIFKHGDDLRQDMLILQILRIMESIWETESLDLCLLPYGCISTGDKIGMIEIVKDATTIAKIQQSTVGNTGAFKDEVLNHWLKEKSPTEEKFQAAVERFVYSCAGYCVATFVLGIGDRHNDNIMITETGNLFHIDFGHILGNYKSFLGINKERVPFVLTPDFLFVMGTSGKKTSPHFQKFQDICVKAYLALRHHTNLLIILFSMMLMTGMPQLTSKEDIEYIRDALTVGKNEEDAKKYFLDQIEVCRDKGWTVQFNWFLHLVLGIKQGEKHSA
Chain of PIK3CA (human), P42336 [E545K] (P42336 whole entry E545K, looked up): as the sequence (P42336 whole entry H1047R, looked up) above, with E545K, R1047H counted along it
Chain of PIK3CB (Human) (P42338 whole entry, looked up): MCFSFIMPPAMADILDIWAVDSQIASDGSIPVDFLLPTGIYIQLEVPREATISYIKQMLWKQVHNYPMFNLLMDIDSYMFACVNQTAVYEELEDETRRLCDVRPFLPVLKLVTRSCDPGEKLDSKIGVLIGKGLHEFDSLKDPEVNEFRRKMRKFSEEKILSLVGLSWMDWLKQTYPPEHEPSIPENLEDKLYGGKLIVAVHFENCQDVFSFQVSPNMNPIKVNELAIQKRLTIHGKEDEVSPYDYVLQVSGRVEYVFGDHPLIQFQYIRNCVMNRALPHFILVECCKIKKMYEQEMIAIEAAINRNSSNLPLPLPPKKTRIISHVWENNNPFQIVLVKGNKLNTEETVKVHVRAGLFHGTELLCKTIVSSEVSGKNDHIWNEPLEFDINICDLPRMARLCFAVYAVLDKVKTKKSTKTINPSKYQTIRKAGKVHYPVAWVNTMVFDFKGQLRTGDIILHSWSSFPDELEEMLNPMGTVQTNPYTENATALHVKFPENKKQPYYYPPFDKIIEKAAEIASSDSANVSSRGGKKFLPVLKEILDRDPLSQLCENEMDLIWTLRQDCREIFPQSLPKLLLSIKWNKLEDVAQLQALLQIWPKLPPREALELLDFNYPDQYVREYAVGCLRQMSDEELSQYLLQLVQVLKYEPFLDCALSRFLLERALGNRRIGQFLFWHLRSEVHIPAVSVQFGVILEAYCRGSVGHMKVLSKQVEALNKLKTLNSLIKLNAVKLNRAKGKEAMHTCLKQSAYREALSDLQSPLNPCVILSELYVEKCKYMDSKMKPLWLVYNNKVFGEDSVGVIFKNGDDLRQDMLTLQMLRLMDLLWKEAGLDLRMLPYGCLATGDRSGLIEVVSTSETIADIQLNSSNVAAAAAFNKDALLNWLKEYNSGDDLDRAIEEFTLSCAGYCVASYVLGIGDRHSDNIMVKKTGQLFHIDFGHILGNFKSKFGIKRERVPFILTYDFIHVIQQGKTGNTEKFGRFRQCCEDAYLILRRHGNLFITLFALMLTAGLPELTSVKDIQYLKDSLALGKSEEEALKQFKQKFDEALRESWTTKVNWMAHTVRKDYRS

Structure (SMILES) | IC50 (PIK3CG (human)) [µM] | IC50 [1] [µM] | IC50 (PIK3CB (Human)) [µM] | IC50 (PIK3CA (human)) [µM] | IC50 [2] [µM]
CN(C)C(=O)c1ccc(NC(=O)Nc2ccc(-c3nc(N4CCOCC4)c4cc(F)c(-c5cnn(C)c5)cc4n3)cn2)cc1 | < 0.5 | < 0.05 | < 0.05 | < 0.05 | < 0.05
CN(C)C(=O)c1ccc(NC(=O)Nc2ccc(-c3nc(N4CCOCC4)c4ccc(-c5cccnc5)cc4n3)cc2)c(F)c1 | < 0.5 | 0.05 to 0.5 | 0.05 to 0.5 | < 0.05 | 0.05 to 0.5
Cc1ccc(-c2ccc3c(N4CCOCC4)nc(-c4ccc(NC(=O)Nc5ccc(C(=O)N(C)C)cc5)cc4)nc3c2)o1 | 0.5 to 1 | < 0.05 | 0.5 to 1 | < 0.05 | < 0.05
CN(C)C(=O)c1ccc(NC(=O)Nc2ccc(-c3nc(N4CCOCC4)c4ccc(-c5cccnc5F)cc4n3)cn2)cc1 | < 0.5 | < 0.05 | < 0.05 | < 0.05 | < 0.05
CN(C)C(=O)c1ccc(NC(=O)Nc2ccc(-c3nc(N4CCOCC4)c4ccc(-c5ccco5)cc4n3)cc2)cc1 | < 0.5 | < 0.05 | < 0.05 | < 0.05 | < 0.05
CN(C)C(=O)c1ccc(NC(=O)Nc2ccc(-c3nc(N4CCOCC4)c4ccc(-c5cccc(S(C)(=O)=O)c5)cc4n3)cn2)cc1 | < 0.5 | < 0.05 | < 0.05 | < 0.05 | < 0.05
CN(C)C(=O)c1ccc(NC(=O)Nc2ccc(-c3nc(N4CCOCC4)c4ncc(-c5cccnc5F)cc4n3)cn2)cc1 | < 0.5 | < 0.05 | < 0.05 | < 0.05 | < 0.05
CN(C)C(=O)c1ccc(NC(=O)Nc2ccc(-c3nc(N4CCOCC4)c4ncc(-c5cccc(S(C)(=O)=O)c5)cc4n3)cn2)cc1 | < 0.5 | < 0.05 | < 0.05 | < 0.05 | < 0.05
CN(C)C(=O)c1ccc(NC(=O)Nc2ccc(-c3nc(N4CCOCC4)c4ncc(-c5cccc(S(C)(=O)=O)c5)cc4n3)cc2F)cc1 | < 0.5 | < 0.05 | 0.05 to 0.5 | < 0.05 | < 0.05
CN(C)C(=O)c1ccc(NC(=O)Nc2ccc(-c3nc(N4CCOCC4)c4ncc(-c5cncnc5)cc4n3)cc2)cc1 | – | – | – | < 0.05 | –
N[C@H]1CCN(C(=O)c2ccc(NC(=O)Nc3ccc(-c4nc(N5CCOCC5)c5ccc(-c6ccco6)cc5n4)cc3)cc2)C1 | – | – | – | < 0.05 | –
CN(C)C(=O)c1ccc(NC(=O)Nc2ccc(-c3nc(N4CCOCC4)c4ccc(-c5cccnc5F)cc4n3)cc2)c(F)c1 | – | 0.05 to 0.5 | 0.05 to 0.5 | 0.05 to 0.2 | 0.05 to 0.5
CN(C)C(=O)c1ccc(NC(=O)Nc2ccc(-c3nc(N4CCOCC4)c4ccc(-c5cncnc5)cc4n3)cc2F)cc1 | – | – | – | 0.05 to 0.2 | –
CNC(=O)c1ccc(NC(=O)Nc2ccc(-c3nc(N4CCOCC4)c4ccc(-c5ccc(C)o5)cc4n3)cc2)cc1 | – | – | – | 0.05 to 0.2 | –
CN(C)C(=O)c1ccc(NC(=O)Nc2ccc(-c3nc(N4CCOCC4)c4ccc(-c5ccc(C#N)o5)cc4n3)c(F)c2)cc1 | – | – | – | < 0.05 | –
CN(C)C(=O)c1ccc(NC(=O)Nc2ccc(-c3nc(N4CCOCC4)c4ccc(-c5cccc(F)c5)cc4n3)cc2)cc1 | – | – | – | 0.05 to 0.2 | –
CN(C)C(=O)c1ccc(NC(=O)Nc2ccc(-c3nc(N4CCOCC4)c4ccc(-c5cncnc5)cc4n3)cc2)cc1F | – | – | – | < 0.05 | –
CN1CCN(C(=O)c2ccc(-c3ccc4c(N5CCOCC5)nc(-c5ccc(NC(=O)Nc6ccc(C(=O)N(C)C)cc6)cc5)nc4c3)o2)CC1 | – | – | – | < 0.05 | –
CN(C)C(=O)c1ccc(NC(=O)Nc2ccc(-c3nc(N4CCOCC4)c4cc(F)c(-c5cncc(S(C)(=O)=O)c5)cc4n3)cc2)cc1 | – | – | – | < 0.05 | –
CN(C)[C@H]1CCN(C(=O)c2ccc(NC(=O)Nc3ccc(-c4nc(N5CCOCC5)c5cc(F)c(-c6cccnc6)cc5n4)cc3)cc2)C1 | – | – | – | < 0.05 | –
CN(C)C(=O)c1ccc(NC(=O)Nc2ccc(-c3nc(N4CCOCC4)c4ccc(-c5cccc(S(C)(=O)=O)c5)cc4n3)cc2F)cn1 | – | – | – | < 0.05 | –
CC(=O)Nc1ccc(NC(=O)Nc2ccc(-c3nc(N4CCOCC4)c4ncc(-c5cnn(C)c5)cc4n3)cc2)cc1 | – | – | – | < 0.05 | –
CN(C)C1CCN(C(=O)c2ccc(NC(=O)Nc3ccc(-c4nc(N5CCOCC5)c5ccc(-c6cccnc6F)cc5n4)cn3)cc2)CC1 | – | – | – | < 0.05 | –
CN(C)C(=O)c1ccc(NC(=O)Nc2ccc(-c3nc(N4CCOCC4)c4ccc(-c5cncnc5)cc4n3)cc2)c(F)c1 | < 0.5 | 0.05 to 0.5 | 0.05 to 0.5 | < 0.05 | 0.05 to 0.5
CN(C)C(=O)c1ccc(NC(=O)Nc2ccc(-c3nc(N4CCOCC4)c4ccc(-c5ccnnc5)cc4n3)cc2)cc1 | – | – | – | 0.05 to 0.2 | –
CN(C)C(=O)c1ccc(NC(=O)Nc2ccc(-c3nc(N4CCOCC4)c4cc(F)c(-c5ccco5)cc4n3)cc2)cc1 | – | – | – | 0.05 to 0.2 | –

Structure (SMILES) | IC50 (PIK3CG (human)) [µM] | IC50 [1] [µM] | IC50 (PIK3CB (Human)) [µM] | IC50 (PIK3CA (human)) [µM] | IC50 [2] [µM]
CN(C)C(=O)c1ccc(NC(=O)Nc2ccc(-c3nc(N4CCOCC4)c4ccc(-c5cccc(S(C)(=O)=O)c5)cc4n3)cn2)cc1F | < 0.5 | < 0.05 | < 0.05 | < 0.05 | < 0.05
CN(C)CCn1cc(-c2ccc3c(N4CCOCC4)nc(-c4ccc(NC(=O)Nc5ccc(C(=O)N(C)C)cc5)cc4)nc3c2)cn1 | – | – | – | 0.05 to 0.2 | –
CN(C)C(=O)c1ccc(NC(=O)Nc2ccc(-c3nc(N4CCOCC4)c4ccc(-c5cncnc5)cc4n3)cc2)cc1 | – | < 0.05 | – | < 0.05 | < 0.05
CN(C)C(=O)c1ccc(NC(=O)Nc2ccc(-c3nc(N4CCOCC4)c4ccc(-c5cccnc5)cc4n3)c(F)c2)cc1 | – | – | – | < 0.05 | –
CC(O)c1ccc(-c2ccc3c(N4CCOCC4)nc(-c4ccc(NC(=O)Nc5ccc(C(=O)N(C)C)cc5)c(F)c4)nc3c2)o1 (stereo not given) | – | – | – | < 0.05 | –
CN(C)CCN(C)C(=O)c1ccc(NC(=O)Nc2ccc(-c3nc(N4CCOCC4)c4ccc(-c5cncnc5)cc4n3)cc2)cc1 | – | – | – | < 0.05 | –
CN(C)C(=O)c1ccc(NC(=O)Nc2ccc(-c3nc(N4CCOCC4)c4ncc(-c5cnn(C)c5)cc4n3)cc2)c(F)c1 | – | – | – | < 0.05 | –
COc1cccc(-c2ccc3c(N4CCOCC4)nc(-c4ccc(NC(=O)Nc5ccc(C(=O)N(C)C)cc5)cc4)nc3c2)n1 | – | – | – | 0.05 to 0.2 | –
CN(C)C(=O)c1ccc(NC(=O)Nc2ccc(-c3nc(N4CCOCC4)c4ccc(-c5ccc(C(C)(C)O)o5)cc4n3)c(F)c2)cc1 | – | – | – | 0.05 to 0.2 | –
Cc1noc(C)c1-c1cnc2c(N3CCOCC3)nc(-c3ccc(NC(=O)Nc4ccc(C(=O)N(C)C)cc4)c(F)c3)nc2c1 | – | – | – | < 0.05 | –
COc1ccc(-c2ccc3c(N4CCOCC4)nc(-c4ccc(NC(=O)Nc5ccc(C(=O)N(C)C)cc5)cc4)nc3c2)cn1 | – | – | – | < 0.05 | –
CN(C)C(=O)c1ccc(NC(=O)Nc2ccc(-c3nc(N4CCOCC4)c4ccc(-c5ccccn5)cc4n3)cc2F)cc1 | – | – | – | 0.05 to 0.2 | –
CNC(=O)c1ccc(NC(=O)Nc2ccc(-c3nc(N4CCOCC4)c4ccc(-c5cncnc5)cc4n3)cc2)cc1 | – | – | – | 0.05 to 0.2 | –
CN(C)[C@@H]1CCN(C(=O)c2ccc(NC(=O)Nc3ccc(-c4nc(N5CCOCC5)c5cc(F)c(-c6cccnc6)cc5n4)cc3)cc2)C1 | – | – | – | < 0.05 | –
CN1CCN(C(=O)c2ccc(NC(=O)Nc3ccc(-c4nc(N5CCOCC5)c5cc(F)c(-c6cccnc6)cc5n4)cc3)cc2)CC1 | – | – | – | < 0.05 | –
CN(C)C(=O)c1ccc(NC(=O)Nc2ccc(-c3nc(N4CCOCC4)c4ccc(-c5ccncc5)cc4n3)cc2F)cc1 | – | – | – | 0.05 to 0.2 | –
CN(C)C(=O)c1ccc(NC(=O)Nc2ccc(-c3nc(N4CCOCC4)c4ncc(-c5cnn(C)c5)cc4n3)cc2F)cn1 | – | – | – | < 0.05 | –
Cc1nn(C)c(C)c1-c1ccc2c(N3CCOCC3)nc(-c3ccc(NC(=O)Nc4ccc(C(=O)N(C)C)cc4)cc3)nc2c1 | – | – | – | < 0.05 | –
CN(C)[C@@H]1CCN(C(=O)c2ccc(NC(=O)Nc3ccc(-c4nc(N5CCOCC5)c5ncc(-c6cnn(C)c6)cc5n4)cc3F)cc2)C1 | – | – | – | < 0.05 | –
CN(C)C(=O)c1ccc(NC(=O)Nc2ccc(-c3nc(N4CCOCC4)c4cc(F)c(-c5cncnc5)cc4n3)cn2)cc1 | – | – | – | < 0.05 | –
CN(C)CCNC(=O)c1ccc(NC(=O)Nc2ccc(-c3nc(N4CCOCC4)c4ccc(-c5ccco5)cc4n3)cc2)cc1 | – | – | – | < 0.05 | –
CC(O)c1ccc(-c2cnc3c(N4CCOCC4)nc(-c4ccc(NC(=O)Nc5ccc(C(=O)N(C)C)cc5)cc4)nc3c2)o1 (stereo not given) | – | – | – | < 0.05 | –
CN(C)C(=O)c1ccc(NC(=O)Nc2ccc(-c3nc(N4CCOCC4)c4cc(F)c(-c5cccnc5F)cc4n3)cn2)cc1 | – | – | – | < 0.05 | –
CNC(=O)c1ccc(NC(=O)Nc2ccc(-c3nc(N4CCOCC4)c4ncc(-c5cnn(C)c5)cc4n3)cc2)cc1 | – | – | – | < 0.05 | –
CN(C)C(=O)c1ccc(NC(=O)Nc2ccc(-c3nc(N4CCOCC4)c4ccc(-c5ccc(CO)o5)cc4n3)c(F)c2)cc1 | – | – | – | < 0.05 | –
